Laboratory results from article PMC3739731, “Pharmacological Inhibition of polysialyltransferase ST8SiaII Modulates Tumour Cell Migration” (PLoS ONE, 2013).

Key:
ST8SiaII [1] = target: T1, ST8SiaII (Homo sapiens, UniProt Q92186); assay: HPLC-fluorescence enzyme kinetics, Lineweaver-Burk (Km); format: biochemical
T1 construct: gene ST8SIA2
T1 sequence (Q92186 1-375): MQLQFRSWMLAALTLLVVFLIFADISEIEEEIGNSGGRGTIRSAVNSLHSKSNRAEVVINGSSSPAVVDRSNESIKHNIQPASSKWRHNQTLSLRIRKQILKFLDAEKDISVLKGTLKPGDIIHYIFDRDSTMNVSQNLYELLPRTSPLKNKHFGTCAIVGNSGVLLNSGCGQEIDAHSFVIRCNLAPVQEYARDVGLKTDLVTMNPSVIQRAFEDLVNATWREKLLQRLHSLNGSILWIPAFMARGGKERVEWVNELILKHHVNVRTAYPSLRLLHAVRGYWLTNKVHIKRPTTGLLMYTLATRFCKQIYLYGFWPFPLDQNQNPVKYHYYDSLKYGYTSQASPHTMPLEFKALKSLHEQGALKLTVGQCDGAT

ST8SiaII [2] = target: T1, ST8SiaII; assay: HPLC assay of DMB-DP3 polysialylation with recombinant human ST8SiaII, Dixon plot; format: biochemical

Row | Compound | Km (ST8SiaII [1]) [µM] | Ki (ST8SiaII [2]) [µM]
1 | DMB-DP3 | 38.9 | –
2 | Nc1ccn([C@@H]2O[C@H](COP(=O)(O)O)[C@@H](O)[C@H]2O)c(=O)n1 [CMP] | – | 10
